{"source": "patent US5403930A", "about": "“Substituted salicylic acids” (Pharmacia AB, priority 1991, dated 1995)", "key": {"human lymphocytes": {"tested_on": "human lymphocytes", "assay": "Concanavalin A-induced proliferation of human lymphocytes ([3H]-thymidine)", "assay_type": "cell-based", "details": "Lymphocyte, 72 h, 250 μM test compound, 2.5 μg/ml Concanavalin A, 3 days, 2 experiments", "protocol": "Effect of Compounds on Human Lymphocyte Proliferation Peripheral blood mononuclear cells were isolated from heparinized blood from healthy volunteers by density gradient centrifugation as described by Bain and Pshyk, Transplantation Proc, 4:163-164 (1972). Cell proliferation induced by Concanavalin A was measured in a standard assay such as described in Soderstrom et at., Scand J Immunol, 32:503-516 (1990) using 5% fetal bovine serum in the culture medium. The reaction mixture (final concentrations) consisted of 200 000 cells stimulated with 2.5 μg/ml Concanavalin A and test compounds in a total volume of 0.2 ml. The test compounds were added at the start of the assay, which was run for a total of three days with addition ofradioactive [3H]-thymidine during the last 18 h. Cell bound radioactivity was measured in a liquid scintillation counter."}, "Human Granulocytes": {"tested_on": "Human Granulocytes", "assay": "FMLP-induced superoxide production of human granulocytes, 10 μM test compound", "assay_type": "cell-based", "details": "10 nM FMLP, 400 000 granulocytes", "protocol": "Effects of Test Compounds on Superoxide Production of Human Granulocytes\nGranulocytes were isolated from the heparinized blood from healthy volunteers. The superoxide assay was essentially that of J. M. McCord and I Fridovich (J. Biol. Chem. 244:6049-6055 (1969)) as modified by G Carlin et al. (Pharmacol. Toxicol 65:121-127 (1989)). The reaction mixture contained (final concentrations) 125 μM cytochrome C in Dulbeccos phosphate buffer with Mg and Ca, 10 μM test compound and 400 000 granulocytes treated with 5 μg/ml of cytochalasin B immediately before the experiment. This reaction mixture was preincubated at 37° C. for 10 minutes, whereafter 10 nM N-formyl-L-methionyl-L-leucyl-L-phenylalanine was added to start the reaction, making the final volume 1 ml. After 10 minutes the tubes were centrifuged and the absorbance of the supernatant at 540 and 550 nm was measured. The superoxide production was expressed as the difference in absorbance at these wavelengths."}}}
{"smiles": "O=C(O)c1cc(C#Cc2ccc(S(=O)(=O)Nc3ccccn3)cc2)ccc1O", "note": "[Example 1, 2-Hydroxy-5-[[4-[(2-pyridinylamino)sulfonyl]phenyl]ethynyl]benzoic acid]", "values": [{"measurement": "inhibition at 250 µM", "setting": "human lymphocytes", "value": 95.6, "unit": "%"}, {"measurement": "inhibition at 10 µM", "setting": "Human Granulocytes", "value": 71, "unit": "%"}]}
{"smiles": "O=C(O)c1cc(C=Cc2ccc(S(=O)(=O)Nc3ccccn3)cc2)ccc1O", "note": "[Example 3, 2-Hydroxy-5-[2-[4-[(2-pyridinylamino)sulfonyl]phenyl]ethenyl]benzoic acid]", "values": [{"measurement": "inhibition at 250 µM", "setting": "human lymphocytes", "value": 73.6, "unit": "%"}, {"measurement": "inhibition at 10 µM", "setting": "Human Granulocytes", "value": 55.7, "unit": "%"}]}
{"smiles": "Cc1cccnc1NS(=O)(=O)c1ccc(C=Cc2ccc(O)c(C(=O)O)c2)cc1", "note": "[Example 4, 2-Hydroxy-5-[2-[4-[(3-methyl-2-pyridinylamino)sulfonyl]phenyl]ethenyl]benzoic acid]", "values": [{"measurement": "inhibition at 250 µM", "setting": "human lymphocytes", "value": 92.3, "unit": "%"}, {"measurement": "inhibition at 10 µM", "setting": "Human Granulocytes", "value": 76.9, "unit": "%"}]}
{"smiles": "CC(C)COC(=O)c1cc(C=Cc2ccc(S(=O)(=O)Nc3ccccn3)cc2)ccc1O", "note": "[Example 5, Isobutyl 2-hydroxy-5-[2-[4-[(2-pyridinylamino)sulfonyl]phenyl]ethenyl]benzoate]", "values": [{"measurement": "inhibition at 10 µM", "setting": "Human Granulocytes", "value": 25.8, "unit": "%"}]}
{"smiles": "Cc1ccc(NS(=O)(=O)c2ccc(C=Cc3ccc(O)c(C(=O)O)c3)cc2)nc1", "note": "[Example 15, 2-Hydroxy-5-[2-[4-[(5-methyl-2-pyridinylamino)sulfonyl]phenyl]ethenyl]benzoic acid]", "values": [{"measurement": "inhibition at 250 µM", "setting": "human lymphocytes", "value": 93.9, "unit": "%"}]}
{"smiles": "Cc1cc(NS(=O)(=O)c2ccc(C=Cc3ccc(O)c(C(=O)O)c3)cc2)no1", "note": "[Example 18, 2-Hydroxy-5-[2-[4-[(5-methyl-3-isoxazolyl)aminosulfonyl]phenyl]ethenyl]benzoic acid]", "values": [{"measurement": "inhibition at 250 µM", "setting": "human lymphocytes", "value": 43.8, "unit": "%"}, {"measurement": "inhibition at 10 µM", "setting": "Human Granulocytes", "value": 44.2, "unit": "%"}]}
{"smiles": "Cc1ccnc(NS(=O)(=O)c2ccc(C=Cc3ccc(O)c(C(=O)O)c3)cc2)n1", "note": "[Example 19, 2-Hydroxy-5-[2-[4-[(4-methyl-2-pyrimidyl)amino-sulfonyl]phenyl]ethenyl]benzoic acid ethanol solvate (2:1)]", "values": [{"measurement": "inhibition at 250 µM", "setting": "human lymphocytes", "value": 10.3, "unit": "%"}, {"measurement": "inhibition at 10 µM", "setting": "Human Granulocytes", "value": 65.9, "unit": "%"}]}
{"smiles": "O=C(O)c1cc(C=Cc2ccc(S(=O)(=O)Nc3cnccn3)cc2)ccc1O", "note": "[Example 20, 2-Hydroxy-5-[2-[4-[(2-pyrazinyl)aminosulfonyl]phenyl]ethenyl]benzoic acid]", "values": [{"measurement": "inhibition at 250 µM", "setting": "human lymphocytes", "value": 34.8, "unit": "%"}, {"measurement": "inhibition at 10 µM", "setting": "Human Granulocytes", "value": 35.1, "unit": "%"}]}
{"smiles": "Cc1ccnc(NS(=O)(=O)c2ccc(C=Cc3ccc(O)c(C(=O)O)c3)cc2)c1", "note": "[Example 25, 2-Hydroxy-5-[2-[4-[(4-methyl-2-pyridinylamino)sulfonyl]phenyl]-ethenyl]benzoic acid ethanol solvate (2:1)]", "values": [{"measurement": "inhibition at 10 µM", "setting": "Human Granulocytes", "value": 45.5, "unit": "%"}]}
{"smiles": "O=C(O)c1cc(CCc2ccc(S(=O)(=O)Nc3ccccn3)cc2)ccc1O", "note": "[Example 26, 2-Hydroxy-5-[2-[4-[(2-pyridinylamino)sulfonyl]phenyl]ethyl]benzoic acid]", "values": [{"measurement": "inhibition at 250 µM", "setting": "human lymphocytes", "value": 16, "unit": "%"}, {"measurement": "inhibition at 10 µM", "setting": "Human Granulocytes", "value": 26.8, "unit": "%"}]}
{"smiles": "Cc1cccnc1NS(=O)(=O)c1ccc(CC(=O)c2ccc(O)c(C(=O)O)c2)cc1", "note": "[Example 27, 2-Hydroxy-5-[[4-[(3-methyl-2-pyridinylamino)sulfonyl]phenyl]acetyl]benzoic acid]", "values": [{"measurement": "inhibition at 250 µM", "setting": "human lymphocytes", "value": 37.3, "unit": "%"}, {"measurement": "inhibition at 10 µM", "setting": "Human Granulocytes", "value": 32.7, "unit": "%"}]}
{"smiles": "O=C(Cc1ccc(S(=O)(=O)Nc2ccccn2)cc1)c1ccc(O)c(C(=O)O)c1", "note": "[Example 28]", "values": [{"measurement": "inhibition at 250 µM", "setting": "human lymphocytes", "value": 15, "unit": "%"}, {"measurement": "inhibition at 10 µM", "setting": "Human Granulocytes", "value": 17.9, "unit": "%"}]}
{"smiles": "O=C(O)c1cc(C#Cc2ccc(S(=O)(=O)Nc3ncccc3OCc3ccccc3)cc2)ccc1O", "note": "[Example 31, 2-Hydroxy-5-[[4-[[3-(phenylmethoxy)-2-pyridinylamino]sulfonyl]phenyl]ethynyl]benzoic acid]", "values": [{"measurement": "inhibition at 250 µM", "setting": "human lymphocytes", "value": 100, "unit": "%"}]}
{"smiles": "O=C(O)c1cc(C#Cc2ccc(S(=O)(=O)Nc3ccc(Cl)cn3)cc2)ccc1O", "note": "[Example 32, 5-[[4-[(5-Chloro-2-pyridinylamino)sulfonyl]phenyl]ethynyl]-2hydroxybenzoic acid]", "values": [{"measurement": "inhibition at 250 µM", "setting": "human lymphocytes", "value": 100, "unit": "%"}]}
{"smiles": "O=C(O)c1cc(C#Cc2ccc(S(=O)(=O)Nc3nc4ccc(F)cc4s3)cc2)ccc1O", "note": "[Example 34]", "values": [{"measurement": "inhibition at 250 µM", "setting": "human lymphocytes", "value": 98, "unit": "%"}]}
{"smiles": "CN(c1ccccn1)S(=O)(=O)c1ccc(C#Cc2ccc(O)c(C(=O)O)c2)cc1", "note": "[Example 35, 2-Hydroxy-5-[[4-[N-methyl-(2-pyridinyl)aminosulfonyl]phenyl]ethynyl]benzoicacid]", "values": [{"measurement": "inhibition at 250 µM", "setting": "human lymphocytes", "value": 99, "unit": "%"}]}
